# Data reported in PMC6522510 (Nature Communications, 2019).
# Columns and labels:
# Design in all cases: species or system AML cell lines (8); Primary HTS, single concentration about 10 uM, Cell Titer Glo viability; log10 luminescence, per cent inhibition relative to cycloheximide control
# Details in all cases: 72 h, relative to cycloheximide control, log10 luminescence; inhibitor
# MOLM-13 = tested on: MOLM-13
# CMK = tested on: CMK
# M07e = tested on: M07e
# ML-2 = tested on: ML-2
# U937 = tested on: U937
# CMS = tested on: CMS
# MV4-11 = tested on: MV4-11
# CHRF288-11 = tested on: CHRF288-11
Structure (SMILES),MOLM-13 %inh (MOLM-13),CMK %inh (CMK),M07e %inh (M07e),ML-2 %inh (ML-2),U937 %inh (U937),CMS %inh (CMS),MV4-11 %inh (MV4-11),CHRF288-11 %inh (CHRF288-11)
"Nc1ncc(-c2cccc(S(N)(=O)=O)c2)c2scc(-c3ccc(F)c(Cl)c3)c12 [SJ000573321-1, T398/119/1]",16.59%,13%,3.71%,3.028%,8.699%,4.233%,8.004%,3.763%
"COc1ccc2ncn(-c3cc(O[C@H](C)c4ccccc4C(F)(F)F)c(C(N)=O)s3)c2c1 [SJ000573322-1, U20814/199/10]",82.54%,113.1%,100.1%,37.32%,82.26%,76.93%,71.74%,71.55%
"COc1ccc(-c2coc3ncnc(N)c23)cc1 [SJ000573323-1, R6872/61/3]",0.9708%,0.752%,-2.594%,-3.247%,2.094%,-2.18%,-1.377%,1.277%
"NS(=O)(=O)c1ccc(Nc2cc(-c3cccc(O)c3)n[nH]2)cc1 [SJ000573324-1, T350/111/20]",21.76%,-2.15%,-0.9399%,1.059%,-2.304%,0.8193%,18.96%,-4.339%
"Cc1ccc(-c2cc3c(NC(=O)C4CC4)ncnc3o2)cc1 [SJ000573325-1, T337/155/21]",-1.693%,-5.745%,5.01%,1.949%,-2.342%,1.223%,-4.319%,1.899%
"NS(=O)(=O)c1cccc(Nc2cc(-c3ccc(F)cc3)n[nH]2)c1 [SJ000573326-1, T350/64/20]",68.76%,-1.826%,6.143%,1.419%,-2.237%,1.139%,42.33%,-0.9199%
"CCn1c(-c2nonc2N)nc2c(C#CC(C)(C)O)nc(O[C@@H](CN)c3ccccc3)cc21 [SJ000573327-1, MS208738-058A1]",95.38%,85.94%,123.2%,56.05%,77.05%,81.02%,81.31%,92%
"CCCN1CCC(c2ccc(Nc3nc(Nc4cc(F)ccc4C(N)=O)c4cc[nH]c4n3)c(OC)c2)CC1 [SJ000573328-1, U23536/58/1]",66.64%,51.59%,37.4%,55.61%,63.82%,49%,58.24%,106.3%
"O=C(O[C@H]1CN[C@H](C#Cc2cc3ncnc(Nc4ccc(OCc5cccc(F)c5)c(Cl)c4)c3s2)C1)N1CCOCC1 [SJ000573329-1, U20348/87/4]",4.591%,8.904%,-3.855%,22.51%,6.089%,8.758%,10.03%,79.21%
"N#Cc1cccc(Nc2nccc(-c3cnn4ncccc34)n2)c1 [SJ000573330-1, U19339/96/3]",98.39%,106.6%,113.8%,56.71%,80.06%,104.6%,85.56%,55.56%
"Nc1ncnc2occ(-c3ccc(NC(=O)Nc4cc(C(F)(F)F)cc(C(F)(F)F)c4)cc3)c12 [SJ000573331-1, T299/133/15]",93.65%,3.982%,1.156%,1.52%,4.807%,4.245%,73.61%,6.057%
"CC(=O)Nc1cccc(C#Cc2cncnc2Nc2ccc(OCc3cccc(F)c3)c(Cl)c2)c1 [SJ000573332-1, U21935/99/1]",0.3704%,-0.8317%,1.101%,1.213%,4.462%,0.8612%,0.9824%,3.642%
"CCn1c(-c2nonc2N)nc2c(C#CC(C)(C)O)ncc(OC[C@@H]3CCCN3)c21 [SJ000573333-1, ML205742-149B0]",74.82%,15.2%,9.925%,7.469%,42.79%,14%,16.86%,13.49%
"O=C(O[C@H]1CN[C@H](C#Cc2cc3ncnc(Nc4ccc(Cc5ccccc5)cc4)c3s2)C1)N1CCOCC1 [SJ000573334-1, U20046/184/1]",61.51%,86.74%,4.781%,11.25%,2.636%,1.486%,4.189%,4.257%
"C[C@@H](Oc1cc(-n2cnc3ccc(OC[C@@H](O)CO)cc32)sc1C(N)=O)c1ccccc1Cl [SJ000573335-1, U22436/41/1]",82.19%,83.74%,110.3%,25.64%,86.31%,71.91%,65.42%,63.27%
"Cc1ccc(NC(=O)c2ccnc(N3CCCC3)c2)cc1-c1ccc(C(=O)NCC2CC2)cc1 [SJ000573336-1, U23923/65/8]",2.702%,0.1294%,-0.5333%,-2.392%,0.7829%,-0.7437%,1.019%,-0.1983%
"CCCN1CCCC(c2ccc(Nc3nc(Nc4cc(F)ccc4C(N)=O)c4cc[nH]c4n3)c(OC)c2)C1 (centres unmarked) [SJ000573337-1, U23441/128/1]",102.6%,49.26%,41.75%,69.05%,43.81%,31.15%,85.37%,108.4%
"CCn1c(-c2nonc2N)nc2c(C#CC(C)(C)O)ncc(OCC3CCNCC3)c21 [SJ000573338-1, N3180-49-A1]",4.413%,1.889%,-1.564%,1.732%,25.28%,4.398%,8.685%,-0.2898%
"CCn1c(-c2nonc2N)nc2c(C#CCN)ncc(OCCCN)c21 [SJ000573339-1, N3180-25-A1]",6.465%,3.187%,-1.392%,0.8489%,1.188%,4.589%,3.433%,1.457%
